The record followed here is patent EP0328090A2 (priority 1988, dated 1989).

SMILES strings stand for the structures. Starred links: 1 amine or outer side, 2 acyl side, 3 side chain; linkers in the order of their positions; H or OH if unused. Non-standard residues stand in square brackets, D forms with d. Residues, ends and D or L forms follow the SMILES beside them. X1 = CCNC[C@@H](C(=O)[*:2])N(C)[*:1]; Sar = CNCC(=O)O

The first experiment has as its system serum LH concentration. Briefly: In vivo LH release in castrated rats (serum LH by RIA). Conditions: i.v., dose producing half-maximal time integrated LH release. On the procedure: (§1) The biological activities of the compounds of the invention are determined by the following assays: • (a) Receptor Binding. A radioligand receptor binding assay is performed in a similar way to that described in the literature (J. Marion et al., Mol. Pharmacol. 19 399 (1981)). […] The radioligand (50pM), receptors, and compounds to be tested are coincubated for 2 hours at 4°C. Bound ligand is separated from free ligand via centrifugation and aspiration. […] This assay has been adopted from the literature (H.A. Jinnah and P.M. Conn, Endrocrinology 118 2599 (1986)). Rat pituitaries are removed from immature female rats, minced, and dissociated with collagenase/hyaluronidase. They are allowed to attach to 48-well microtiter plates for 48-72 hours, then are exposed to test compounds for 3 hours at 37°C. The medium is assayed for released LH by RIA (radioimmunoassay). […] The compound to be tested is administered to castrated rats intraveneously and the serum LH concentration at various time points is measured by RIA. The time inteorated LH response is calculated and the dose producing half-maximal LH release (ED₅₀) is reported. • (d) Stability against enzymatic degradation. The intestinal stability of the compounds of the invention was determined using in vitro rat jejunum in a reperfusion system. The fractional mucosal loss was an indicator of the relative rate if degradation of the compounds thirty minutes after introduction of the luminal bath.
With `CCNC[C@@H](C(=O)N[C@@H](Cc1ccc(O)cc1)C(=O)N[C@H](Cc1c[nH]c2ccccc12)C(=O)N[C@@H](CC(C)C)C(=O)N[C@@H](CCCNC(=N)N)C(=O)N1CCC[C@H]1C(=O)NCC)N(C)C(=O)[C@H](Cc1c[nH]c2ccccc12)NC(=O)[C@H](Cc1c[nH]cn1)NC(=O)CN(C)C(C)=O` [Ex. 7, N-Ac-Sar-His-Trp-(3)-N-Et-(2)-N-Me-Dap-Tyr-D-Trp-Leu-Arg-Pro-NHEt] (Ac-[Sar]HW[X1]Y[dW]LRP-NHEt), the ED₅₀ came to 9.64 µg/kg. The same measure, in the same setting: in the case of `CCNC(=O)CC[C@H](NC(=O)NCC)C(=O)N[C@@H](Cc1c[nH]cn1)C(=O)N[C@@H](Cc1c[nH]c2ccccc12)C(=O)N(C)[C@@H](CO)C(=O)N[C@@H](Cc1ccc(O)cc1)C(=O)N[C@H](Cc1c[nH]c2ccccc12)C(=O)N[C@@H](CC(C)C)C(=O)N[C@@H](CCCNC(=N)N)C(=O)N1CCC[C@H]1C(=O)NCC` [Ex. 12, (2)-N-(Ethylaminocarbonyl)-(5)-N-ethylamido-Glu-His-Trp-N-Me-Ser-Tyr-D-Trp-Leu-Arg-Pro-NHEt] it was 9.90 µg/kg; in that of `CC(C)C[C@H](NC(=O)CNC(=O)[C@H](Cc1ccc(O)cc1)NC(=O)[C@H](CO)NC(=O)[C@H](Cc1c[nH]c2ccccc12)NC(=O)[C@H](Cc1c[nH]cn1)NC(=O)[C@@H]1CCC(=O)N1)C(=O)N[C@@H](CCCNC(=N)N)C(=O)N1CCC[C@H]1C(=O)NCC(N)=O` [LHRH, reference compound], 100 µg/kg.

The target of a further experiment is T1, LHRH receptors (Rattus norvegicus, UniProt P30969).
T1 sequence (P30969 1-327): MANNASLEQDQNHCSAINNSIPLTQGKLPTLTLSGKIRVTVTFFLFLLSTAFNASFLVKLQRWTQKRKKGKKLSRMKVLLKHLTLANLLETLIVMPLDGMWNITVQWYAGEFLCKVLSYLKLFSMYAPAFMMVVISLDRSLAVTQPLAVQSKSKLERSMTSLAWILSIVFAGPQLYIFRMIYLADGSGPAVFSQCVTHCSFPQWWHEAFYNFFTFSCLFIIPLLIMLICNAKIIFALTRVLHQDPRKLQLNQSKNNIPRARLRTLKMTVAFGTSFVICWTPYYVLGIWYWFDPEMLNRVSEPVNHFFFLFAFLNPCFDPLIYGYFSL
Nature of the experiment: Radioligand receptor binding assay. The following applies: rat pituitary membranes; radioiodinated [D-Leu⁶-des Gly¹⁰]-LHRH ethyl amide 50pM; 2 hours at 4°C; read-out: Receptor Binding pkI (converted). On the procedure:
as §1
As for `CC(C)C[C@H](NC(=O)[C@@H](Cc1ccc2ccccc2c1)NC(=O)[C@H](Cc1ccc(O)cc1)NC(=O)[C@H](CO)N(C)C(=O)[C@H](Cc1c[nH]c2ccccc12)NC(=O)[C@H](Cc1c[nH]cn1)NC(=O)[C@@H]1CCC(=O)N1)C(=O)N[C@@H](CCCN=C(N)N)C(=O)N1CCC[C@H]1C(=O)NCC(N)=O` [Ex. 3, (pyro)Glu-His-Trp-N-Me-Ser-Tyr-D-(2)-Nal-Leu-Arg-Pro-Gly-NH₂], the Ki is 0.0398 nM. For the compound `CCNC(=O)[C@@H]1CCCN1C(=O)[C@H](CCCNC(=N)N)NC(=O)[C@H](CC(C)C)N1CC[C@H](NC(=O)[C@H](Cc2ccc(O)cc2)NC(=O)[C@H](CO)N(C)C(=O)[C@H](Cc2c[nH]c3ccccc23)NC(=O)[C@H](Cc2c[nH]cn2)NC(=O)[C@@H]2CCC(=O)N2)C1=O` [Ex. 13, (pyro)-Glu-His-Trp-N-Me-Ser-Tyr-6,7-[2-(S-3-amino-2-oxo-pyrrolidin-1-yl)-S-2-Isopropylmethylacetyl]-Arg-Pro-NHEt], the Ki is 0.038 nM. Turning to `CCNC(=O)[C@@H]1CCCN1C(=O)[C@H](CCCN=C(N)N)NC(=O)[C@H](CC(C)C)NC(=O)[C@@H](Cc1c[nH]c2ccccc12)NC(=O)[C@H](Cc1ccc(O)cc1)N(C)C(=O)[C@H](CO)NC(=O)[C@H](Cc1c[nH]c2ccccc12)NC(=O)[C@H](Cc1c[nH]cn1)NC(=O)[C@@H]1CCC(=O)N1` [Ex. 20, (pyro)Glu-His-Trp-Ser-N-Me-Tyr-D-Trp-Leu-Arg-ProNHEt], the Ki is 0.0158 nM.

Regarding `CCNC(=O)[C@@H]1CCCN1C(=O)[C@H](CCCN=C(N)N)NC(=O)[C@H](CC(C)C)NC(=O)[C@@H](CC(C)C)N(C)C(=O)[C@H](Cc1ccc(O)cc1)NC(=O)[C@H](CO)NC(=O)[C@H](Cc1c[nH]c2ccccc12)NC(=O)[C@H](Cc1cnc[nH]1)NC(=O)[C@@H]1CCC(=O)N1` [Ex. 22, (pyro)Glu-His-Trp-Ser-Tyr-N-Me-D-Leu-Leu-Arg-ProNHEt], the Ki was 0.692 nM.
